Measured values published in patent US6319897A, “Peptides which inhibit complement activation” (priority 1999, dated 2001).
Where two headings read alike, the source gives them in different places. Where a SMILES comes first, the peptide text is derived from it. Bridges are numbered along the chain shown (N, C = ends). The star is where a group is joined. Cam = NC(=O)C*

Target: alternative pathway of complement activation (Homo sapiens, UniProt P01024)
Assay: Hemolytic assay, alternative pathway: lysis of rabbit erythrocytes in normal human serum with MgEGTA
Type: cell-based
Method: Inhibition of the alternative pathway was measured by using rabbit erythrocytes in the presence of MgEGTA (FIG. 3A); inhibition of lysis of antibody-coated sheep erythrocytes was used as an indicator of inhibition of the classical pathway (FIG. 3B).
Inhibition of classical and alternative pathway activity by the peptides was measured. […] The reaction mixture was incubated at 37° C. for 1 hour and centrifuged. […] The effect of peptides on the alternative pathway was determined by measuring the lysis of rabbit erythrocytes (Er) in NHS. Various concentrations of peptide were mixed with 5 μl of NHS, 5 μl of MgEGTA and 10 μl of Er (1×10^9 /ml) and brought to a final volume of 100 μl in GVB. The reaction mixture was incubated at 37° C. for 20 minutes and stopped by adding 200 μl of GVBE. […] The percentage of lysis was normalized by considering 100% lysis to be equal to the lysis occurring in the absence of the peptide.

[1] = read-out: ALTERNATIVE PATHWAY IC50

Chain of alternative pathway of complement activation (P01024 23-1663): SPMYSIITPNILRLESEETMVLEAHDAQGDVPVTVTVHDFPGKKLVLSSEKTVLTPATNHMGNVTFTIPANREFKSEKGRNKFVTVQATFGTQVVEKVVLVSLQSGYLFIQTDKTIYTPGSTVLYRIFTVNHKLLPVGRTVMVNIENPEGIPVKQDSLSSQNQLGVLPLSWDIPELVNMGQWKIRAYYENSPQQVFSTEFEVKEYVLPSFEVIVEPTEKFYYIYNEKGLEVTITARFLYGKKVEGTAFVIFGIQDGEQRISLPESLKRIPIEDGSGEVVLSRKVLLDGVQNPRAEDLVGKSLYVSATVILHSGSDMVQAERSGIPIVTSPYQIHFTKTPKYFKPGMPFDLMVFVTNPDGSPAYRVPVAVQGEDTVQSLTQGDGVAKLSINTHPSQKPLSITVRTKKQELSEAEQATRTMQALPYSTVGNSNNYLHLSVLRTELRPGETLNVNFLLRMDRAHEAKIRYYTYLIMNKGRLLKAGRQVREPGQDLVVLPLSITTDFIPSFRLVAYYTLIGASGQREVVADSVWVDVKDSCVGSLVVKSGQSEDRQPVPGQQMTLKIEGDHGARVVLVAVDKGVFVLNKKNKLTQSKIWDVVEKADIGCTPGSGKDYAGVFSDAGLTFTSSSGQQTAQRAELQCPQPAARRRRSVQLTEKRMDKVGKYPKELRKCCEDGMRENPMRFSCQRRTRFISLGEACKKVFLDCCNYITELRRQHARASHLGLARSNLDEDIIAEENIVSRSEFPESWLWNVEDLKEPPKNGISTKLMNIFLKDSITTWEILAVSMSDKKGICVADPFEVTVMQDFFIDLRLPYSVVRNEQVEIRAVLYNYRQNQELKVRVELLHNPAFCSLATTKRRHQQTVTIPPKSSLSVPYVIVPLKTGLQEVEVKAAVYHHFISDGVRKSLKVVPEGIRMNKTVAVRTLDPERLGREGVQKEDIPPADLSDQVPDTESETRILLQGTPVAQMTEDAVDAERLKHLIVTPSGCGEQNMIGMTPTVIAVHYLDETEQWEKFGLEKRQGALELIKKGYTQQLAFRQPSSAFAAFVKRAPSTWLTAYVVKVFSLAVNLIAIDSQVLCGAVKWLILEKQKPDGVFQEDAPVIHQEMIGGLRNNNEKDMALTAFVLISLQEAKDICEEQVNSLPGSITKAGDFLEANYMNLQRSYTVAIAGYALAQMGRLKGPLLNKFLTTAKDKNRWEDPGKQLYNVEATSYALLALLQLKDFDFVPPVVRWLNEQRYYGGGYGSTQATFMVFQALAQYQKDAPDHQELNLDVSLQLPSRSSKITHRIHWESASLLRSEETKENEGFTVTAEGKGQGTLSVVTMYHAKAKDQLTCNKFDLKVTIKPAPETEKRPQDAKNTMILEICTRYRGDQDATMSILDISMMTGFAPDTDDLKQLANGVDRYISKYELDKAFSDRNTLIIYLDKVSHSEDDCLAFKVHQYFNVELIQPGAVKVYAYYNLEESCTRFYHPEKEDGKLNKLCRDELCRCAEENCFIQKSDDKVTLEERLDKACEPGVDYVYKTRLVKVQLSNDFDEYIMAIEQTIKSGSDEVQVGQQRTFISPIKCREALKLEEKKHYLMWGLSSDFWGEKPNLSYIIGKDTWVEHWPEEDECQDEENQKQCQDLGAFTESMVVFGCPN

SMILES | IC50 [1] | IC50 (read-out: A[…] IC50)
CC[C@H](C)[C@H](N)C(=O)N[C@@H](CSCC(N)=O)C(=O)N[C@H](C(=O)N[C@H](C(=O)N[C@@H](CCC(N)=O)C(=O)N[C@@H](CC(=O)O)C(=O)N[C@@H](Cc1c[nH]c2ccccc12)C(=O)NCC(=O)N[C@@H](Cc1c[nH]cn1)C(=O)N[C@@H](Cc1c[nH]cn1)C(=O)N[C@@H](CCCNC(=N)N)C(=O)N[C@@H](CSCC(N)=O)C(=O)N[C@H](C(=O)N[C@@H](C)C(=O)NCC(=O)N[C@@H](Cc1c[nH]cn1)C(=O)N[C@@H](CCSC)C(=O)N[C@@H](C)C(=O)N[C@@H](CC(N)=O)C(=O)N[C@@H](CC(C)C)C(=O)N[C@H](C(=O)N[C@@H](CO)C(=O)N[C@@H](Cc1c[nH]cn1)C(=O)N[C@@H](C)C(=O)N[C@@H](CO)C(=O)N[C@@H](C)C(=O)N[C@H](C(N)=O)[C@@H](C)CC)[C@@H](C)O)[C@@H](C)O)C(C)C)C(C)C [II] (H-IC(Cam)VVQDWGHHRC(Cam)TAGHMANLTSHASAI-NH2) | > 300 µM | –
C[C@@H](O)[C@H](NC(=O)[C@@H]1CSSC[C@H](N)C(=O)N[C@@H](Cc2c[nH]c3ccccc23)C(=O)NCC(=O)N[C@@H](Cc2c[nH]cn2)C(=O)N[C@@H](Cc2c[nH]cn2)C(=O)N[C@@H](CCCNC(=N)N)C(=O)N1)C(N)=O [IX] (H-CWGHHRCT-NH2; disulfide 1-7) | > 600 µM | –
CC[C@H](C)[C@H](N)C(=O)N[C@@H](CSCC(N)=O)C(=O)N[C@H](C(=O)N[C@H](C(=O)N[C@@H](CCC(N)=O)C(=O)N[C@@H](CC(=O)O)C(=O)N[C@@H](Cc1c[nH]c2ccccc12)C(=O)NCC(=O)N[C@@H](Cc1c[nH]cn1)C(=O)N[C@@H](Cc1c[nH]cn1)C(=O)N[C@@H](CCCNC(=N)N)C(=O)N[C@@H](CSCC(N)=O)C(=O)N[C@H](C(N)=O)[C@@H](C)O)C(C)C)C(C)C [Peptide V] | > 300 µM | –
C[C@@H](O)[C@H](NC(=O)[C@@H]1CSSC[C@H](N)C(=O)NCC(=O)N[C@@H](Cc2c[nH]cn2)C(=O)N[C@@H](Cc2c[nH]cn2)C(=O)N[C@@H](CCCNC(=N)N)C(=O)N1)C(N)=O [VIII] (H-CGHHRCT-NH2; disulfide 1-6) | > 600 µM | –
C[C@@H](O)[C@H](NC(=O)[C@@H]1CSSC[C@H](N)C(=O)N[C@@H](Cc2c[nH]cn2)C(=O)N[C@@H](Cc2c[nH]cn2)C(=O)N[C@@H](CCCNC(=N)N)C(=O)N1)C(N)=O [VII] (H-CHHRCT-NH2; disulfide 1-5) | > 600 µM | –
CC(C)[C@@H]1NC(=O)[C@H](C(C)C)NC(=O)[C@@H](N)CSSC[C@@H](C(N)=O)NC(=O)[C@H](CCCNC(=N)N)NC(=O)[C@H](Cc2c[nH]cn2)NC(=O)[C@H](Cc2c[nH]cn2)NC(=O)CNC(=O)[C@H](Cc2c[nH]c3ccccc23)NC(=O)[C@H](CC(=O)O)NC(=O)[C@H](CCC(N)=O)NC1=O [VI] (H-CVVQDWGHHRC-NH2; disulfide 1-11) | – | 33 µM
CC(C)[C@@H]1NC(=O)[C@H](C(C)C)NC(=O)[C@@H](N)CSSC[C@@H](C(N)=O)NC(=O)[C@H](Cc2c[nH]c3ccccc23)NC(=O)[C@H](CC(=O)O)NC(=O)[C@H](CCC(N)=O)NC1=O [XIII] (H-CVVQDWC-NH2; disulfide 1-7) | > 600 µM | –
CC(C)[C@@H]1NC(=O)[C@@H](N)CSSC[C@@H](C(=O)N[C@H](C(N)=O)[C@@H](C)O)NC(=O)[C@H](CCCNC(=N)N)NC(=O)[C@H](Cc2c[nH]cn2)NC(=O)[C@H](Cc2c[nH]cn2)NC(=O)CNC(=O)[C@H](Cc2c[nH]c3ccccc23)NC(=O)[C@H](CC(=O)O)NC(=O)[C@H](CCC(N)=O)NC1=O [XII] (H-CVQDWGHHRCT-NH2; disulfide 1-10) | > 600 µM | –
CC(C)[C@@H]1NC(=O)[C@H](C(C)C)NC(=O)[C@@H](N)CSSC[C@@H](C(N)=O)NC(=O)[C@H](Cc2c[nH]cn2)NC(=O)CNC(=O)[C@H](Cc2c[nH]c3ccccc23)NC(=O)[C@H](CC(=O)O)NC(=O)[C@H](CCC(N)=O)NC1=O [XIV] (H-CVVQDWGHC-NH2; disulfide 1-9) | > 600 µM | –
CC(C)[C@@H]1NC(=O)[C@H](C(C)C)NC(=O)[C@@H](N)CSSC[C@@H](C(N)=O)NC(=O)[C@H](CCCNC(=N)N)NC(=O)[C@H](Cc2c[nH]cn2)NC(=O)[C@H](Cc2c[nH]cn2)NC(=O)CNC(=O)[C@H](C)NC(=O)[C@H](CC(=O)O)NC(=O)[C@H](CCC(N)=O)NC1=O [XIX] (H-CVVQDAGHHRC-NH2; disulfide 1-11) | 182 µM | –
